Data as given in ChEMBL document CHEMBL5370649, “Novel Coumarin Derivatives Inhibit the Quorum Sensing System and Iron Homeostasis as Antibacterial Synergists against Pseudomonas aeruginosa” (J Med Chem, 2023).
Activity calls are given as the source filed them.

Columns and labels:
[1] = Toxicity in Balb/c mouse wound infection model infected with Pseudomonas aeruginosa PAO1 assessed as morphological changes in kidney at 50 uM,TOP for 3 days in Tobramycin by H and E staining based analysis; type: tissue-based; conditions: in vivo, topical_or_ocular, 72 h, time 3 day
Pseudomonas aeruginosa [2] = experiment: Antibiofilm activity against Pseudomonas aeruginosa PAO1 assessed as inhibition of biofilm formation at 0.5 to 10 uM incubated for 24 hrs by SYTO9 and PI staining based 3D fluorescence confocal microscopy imaging analysis; type: functional, organism-based; conditions: dose 0.5-10 µM
Pseudomonas aeruginosa [3] = experiment: Inhibition of iron homeostasis in Pseudomonas aeruginosa PAO1 in ABTGC medium assessed as decrease in iron level at 1.25 to 20 uM in presence of FeCl3 by fluorescence based microplate reader analysis (Rvb= 9.6+/-2.00 microM); type: functional; conditions: dose 1.25-20 µM
Pseudomonas aeruginosa [4] = experiment: Synergistic antibacterial activity against Pseudomonas aeruginosa PAO1 infected in Balb/c mouse wound infection model assessed as reduction in bacterial survival rate at wounded area at 50 uM,TOP QD for 3 days in presence of Ciprofloxacin by CFU assay; type: functional; conditions: time 3 day
[5] = target: T1, Transcriptional regulator MvfR (Pseudomonas aeruginosa PA14) (UniProt A0A072ZLE6); experiment: Inhibition of PqsR-mediated quorum sensing system in Pseudomonas aeruginosa PAO1 assessed as inhibition of pyocyanin production at 1.25 to 20 uM incubated for 24 hrs by absorbance based assay; conditions: dose 1.25-20 µM
T1 sequence (whole entry): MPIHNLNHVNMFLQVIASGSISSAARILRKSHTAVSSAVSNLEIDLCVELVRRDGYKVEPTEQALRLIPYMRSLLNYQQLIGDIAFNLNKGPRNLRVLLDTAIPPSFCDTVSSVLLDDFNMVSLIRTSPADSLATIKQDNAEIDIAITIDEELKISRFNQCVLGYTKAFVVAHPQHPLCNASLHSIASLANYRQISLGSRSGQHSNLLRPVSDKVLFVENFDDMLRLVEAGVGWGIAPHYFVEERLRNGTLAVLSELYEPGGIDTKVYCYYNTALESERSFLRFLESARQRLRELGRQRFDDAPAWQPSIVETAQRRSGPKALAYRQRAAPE

[6] = Toxicity in Balb/c mouse wound infection model infected with Pseudomonas aeruginosa PAO1 assessed as morphological changes in kidney at 50 uM,TOP for 3 days in Ciprofloxacin by H and E staining based analysis; type: tissue-based; conditions: in vivo, topical_or_ocular, 72 h, time 3 day
Pseudomonas aeruginosa [7] = experiment: Synergistic antibacterial activity against Pseudomonas aeruginosa PAO1 infected in Balb/c mouse wound infection model assessed as healing degree of wound at 50 uM […],TOP QD for 3 days in presence of Ciprofloxacin; type: functional, organism-based; conditions: time 3.0 day
Pseudomonas aeruginosa [8] = experiment: Antibiofilm activity against Pseudomonas aeruginosa PAO1 pvds-defective mutant assessed as inhibition of biofilm formation at 1.25 to 20 uM incubated for 24 hrs by crystal violet staining based absorbance assay; type: functional, organism-based; conditions: dose 1.25-20 µM
Pseudomonas aeruginosa [9] = experiment: Downregulation of pilD expression in Pseudomonas aeruginosa PAO1 at 20 uM incubated for 24 hrs by RNA sequencing analysis; type: functional
[10] = Toxicity in Balb/c mouse wound infection model infected with Pseudomonas aeruginosa PAO1 assessed as morphological changes in liver at 50 uM,TOP for 3 days in Ciprofloxacin by H and E staining based analysis; type: tissue-based; conditions: in vivo, topical_or_ocular, 72 h, time 3 day
Pseudomonas aeruginosa [11] = experiment: Downregulation of rhlB expression in Pseudomonas aeruginosa PAO1 at 20 uM incubated for 24 hrs by RNA sequencing analysis; type: functional
Pseudomonas aeruginosa [12] = experiment: Downregulation of phyllo expression in Pseudomonas aeruginosa PAO1 at 20 uM incubated for 24 hrs by RNA sequencing analysis; type: functional
Pseudomonas aeruginosa [13] = experiment: Upregulation of pchB expression in Pseudomonas aeruginosa PAO1 at 20 uM incubated for 24 hrs by RNA sequencing analysis; type: functional
[14] = Toxicity in Zebrafish embryo assessed as survival rate of zebrafish larvae at 10 to 200 uM and mesured upto 120 hrs post fertilization; set-up: species or system Danio rerio; conditions: in vivo, dose 10-200 µM
Pseudomonas aeruginosa [15] = experiment: Synergistic antibacterial activity against Pseudomonas aeruginosa PAO1 infected in Balb/c mouse wound infection model assessed as healing degree of wound at 50 uM,TOP QD for 3 days and measured after 9 days in presence of Tobramycin; type: functional, organism-based; conditions: time 3.0 day
Pseudomonas aeruginosa [16] = experiment: Downregulation of pilI expression in Pseudomonas aeruginosa PAO1 at 20 uM incubated for 24 hrs by RNA sequencing analysis; type: functional
Pseudomonas aeruginosa [17] = experiment: Downregulation of pilB expression in Pseudomonas aeruginosa PAO1 at 20 uM incubated for 24 hrs by RNA sequencing analysis; type: functional
A549 = experiment: Cytotoxicity against human A549 cells assessed as reduction in cell viability upto 50 uM incubated for 24 hrs by MTT assay; type: toxicity, cell-based; conditions: a549, 24 h
Pseudomonas aeruginosa [18] = experiment: Upregulation of pvdF expression in Pseudomonas aeruginosa PAO1 at 20 uM incubated for 24 hrs by RNA sequencing analysis; type: functional
Pseudomonas aeruginosa [19] = experiment: Downregulation of rhlA expression in Pseudomonas aeruginosa PAO1 at 20 uM incubated for 24 hrs by RNA sequencing analysis; type: functional
[20] = target: T2, HTH-type quorum-sensing regulator RhlR (Pseudomonas aeruginosa (strain ATCC 15692 / PAO1 / 1C / PRS 101 / LMG12228)) (UniProt P54292); experiment: Inhibition of RhlR-mediated quorum sensing system in Pseudomonas aeruginosa PAO1 assessed as inhibition of pyocyanin production at 1.25 to 20 uM incubated for 24 hrs by absorbance based assay; conditions: dose 1.25-20 µM
T2 sequence (whole entry): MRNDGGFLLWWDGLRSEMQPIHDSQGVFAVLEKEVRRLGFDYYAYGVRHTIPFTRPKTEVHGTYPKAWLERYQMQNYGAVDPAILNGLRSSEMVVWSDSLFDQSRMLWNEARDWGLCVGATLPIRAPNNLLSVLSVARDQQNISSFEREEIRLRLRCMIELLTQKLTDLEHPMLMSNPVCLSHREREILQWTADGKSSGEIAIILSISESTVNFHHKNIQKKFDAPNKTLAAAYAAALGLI

Pseudomonas aeruginosa [21] = experiment: Downregulation of filA expression in Pseudomonas aeruginosa PAO1 at 20 uM incubated for 24 hrs by RNA sequencing analysis; type: functional
Pseudomonas aeruginosa [22] = experiment: Inhibition of iron homeostasis in Pseudomonas aeruginosa PAO1 in ABTGC medium assessed as increase in iron-free pyochelin production at 1.25 to 20 uM in presence of FeCl3 by fluorescence based microplate reader analysis; type: functional, organism-based; conditions: dose 1.25-20 µM
Pseudomonas aeruginosa [23] = experiment: Downregulation of mexA expression in Pseudomonas aeruginosa PAO1 at 20 uM incubated for 24 hrs by RNA sequencing analysis; type: functional

Cc1ccc2oc(=O)cc(OCCCCCCC(=O)NO)c2c1
6.96 µM: Activity (Pseudomonas aeruginosa [3])
3.19%: Activity (Pseudomonas aeruginosa [4])
inactive: inhibition (Pseudomonas aeruginosa [8]) | inhibition [20]
Non-Toxic: Activity [1] | Activity [6] | Activity [10] | Activity [14] | Activity (A549)
active: inhibition (Pseudomonas aeruginosa [2]) | inhibition [5] Dose-Dependent Effect | Activity (Pseudomonas aeruginosa [7]) | Activity (Pseudomonas aeruginosa [9]) | Activity (Pseudomonas aeruginosa [11]) | Activity (Pseudomonas aeruginosa [12]) | Activity (Pseudomonas aeruginosa [13]) | Activity (Pseudomonas aeruginosa [15]) | Activity (Pseudomonas aeruginosa [16]) | Activity (Pseudomonas aeruginosa [17]) | Activity (Pseudomonas aeruginosa [18]) | Activity (Pseudomonas aeruginosa [19]) | Activity (Pseudomonas aeruginosa [21]) | inhibition (Pseudomonas aeruginosa [22]) | Activity (Pseudomonas aeruginosa [23])
